In US5045566A, “Novel imidate insecticides” (ICI Americas Inc., priority 1989, dated 1991):

Experiments:
Type in all cases: in vivo
[1] = system: Cabbage Looper [Trichoplusia ni (Hubner)]; assay: Cabbage looper leaf dip (CL), 3-5 days; conditions: percent in solution, second-instar larvae
Method in brief: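 Compounds in 50-50 acetone-water were applied by dipping squash cotyledons (about 1×1.5 in) for 2-3 s; dried leaves went into petri dishes on moist filter paper with 5 second-instar larvae under high humidity. Mortality was scored after 3-5 days; LC50 from dosage-mortality curves, as percent compound in solution.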

[2] = system: Tobacco Budworm [Heliothis virescens (Fabricius)] eggs; assay: Tobacco budworm eggs (TBW-E); conditions: percent in solution; 2-day old eggs
Method in brief: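 Paper towel patches bearing 2-day old eggs were dipped in acetone solutions of compound, then set in petri dishes over larval rearing medium at 78° F. Mortality was scored once all control eggs had hatched and larvae were feeding. LC50, from dosage-mortality curves, is given as percent compound in solution.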

[3] = system: Maize weevil [Sitophilus zeamais (Motschulsky)]; assay: Maize weevil on dipped corn seeds (MW), 48 hours; conditions: percent in solution, adult weevils
Procedure: The compounds in Tables 1 and 2 above were tested for insecticidal activity using the following testing procedures. LC50 values, based on the results of these tests and calculated according to dosage-mortality curves, are expressed in Table 3.
Maize weevil [Sitophilus zeamais (Motschulsky)]:
Test compounds were diluted in a 50:50 acetone:water solution. Four corn seeds [Zea mays (L.)] which had been immersed in test solutions for 2-3 seconds and allowed to dry were placed in containers together with 10 adult weevils. The containers were covered and kept at a temperature of about 25° C. Mortality was recorded after 48 hours. Test concentrations ranged from 0.01% down to that at which 50% mortality occurred. The LC50 values are expressed below in Table 3 under the heading "MW" in terms of percent of the test compound in solution.

[4] = system: Black Bean Aphid [Aphis fabae (Scop.)]; assay: Black bean aphid spray test on nasturtium (BBA), 48 hours; conditions: percent of test compound in sprayed solution
Method in brief: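 LC50, given as percent test compound in the sprayed liquid, was calculated from dosage-mortality curves using concentrations from 0.05% downward. Sprays in 50:50 acetone-water went to runoff on ~5 cm nasturtiums carrying 25-50 aphids of mixed ages, one day after infestation. Deaths were counted 48 h later under greenhouse conditions.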

[5] = system: Housefly [Musca domestica]; assay: Housefly contact mortality in dishes (HF), 48 hours; conditions: μg of test compound per 25 female flies
Method in brief: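 Acetone solutions (with 0.01% peanut oil) dried onto dish bottoms, then 25 female flies, 1-2 days old, caged over the residue with sugar water. Mortality scored at 48 hours; LC50 from dosage-mortality curves, in μg per 25 female flies, top level 100 μg.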

Structure (SMILES)	LC50 CL [1] [%]	LC50 TBW E (eggs) [2] [%]	LC50 MW [3] [%]	LC50 BBA [4] [%]	LC50 HF [5] [µg]
CCc1ccccc1N=C(OCc1cccc(Oc2ccc(F)cc2)c1)C(C)C [Compound 411]	> 0.1	> 0.1	> 0.01	> 0.05	< 100
COc1ccc(N=C(OCc2ccc(F)c(Oc3ccc(Cl)cc3)c2)C(C)C)cc1 [Compound 412]	> 0.1	> 0.1	> 0.01	0.0032	< 100
CC(C)C(=Nc1ccc(F)c(I)c1)OCc1cccc(Oc2ccc(Cl)cc2)c1 [Compound 413]	0.0007	0.04	> 0.01	> 0.05	< 100
CC(C)C(=Nc1ccc(S(C)(=O)=O)cc1)OCc1ccc(F)c(Oc2ccc(F)cc2)c1 [Compound 414]	0.0024	> 0.1	> 0.01	> 0.05	< 100
C=C(C)C(=Nc1ccc(F)c(Cl)c1)OCc1ccc(F)c(Oc2ccc(Cl)cc2)c1 [Compound 415]	0.00075	0.035	> 0.01	0.0007	< 100
C=C(C)C(=Nc1ccc(F)c(Cl)c1)OCc1ccc(F)c(Oc2ccccc2)c1 [Compound 416]	0.00027	0.018	> 0.01	0.0035	< 100
C=C(C)C(=Nc1ccc(F)c(Cl)c1)OCc1cccc(Oc2ccccc2)c1 [Compound 417]	0.0008	0.04	> 0.01	0.004	< 100
CC(C)C(=Nc1ccc(OCC(F)(F)F)c(Cl)c1)OCc1cccc(Oc2ccc(F)cc2)c1 [Compound 420]	0.00075	0.05	> 0.01	0.004	> 100
CC(C)C(=Nc1ccc(OCC(F)(F)F)c(Cl)c1)OCc1cccc(Oc2ccc(Cl)cc2)c1 [Compound 421]	0.002	< 0.1	> 0.01	> 0.05	> 100
CC(C)C(=Nc1ccc(OCC(F)(F)F)cc1)OCc1ccc(F)c(Oc2ccccc2)c1 [Compound 422]	0.00075	0.05	> 0.01	> 0.05	< 100
CC(C)C(=Nc1ccc(OCC(F)(F)F)cc1)OCc1cccc(Oc2ccccc2)c1 [Compound 423]	0.002	> 0.1	> 0.01	> 0.05	> 100
CC(C)C(=Nc1ccc(OCC(F)(F)F)c(Cl)c1)OCc1ccc(F)c(Oc2ccccc2)c1 [Compound 424]	0.00038	0.035	> 0.01	0.002	> 100
CC(C)C(=Nc1ccc(OCC(F)(F)F)c(Cl)c1)OCc1cccc(Oc2ccccc2)c1 [Compound 425]	0.00075	> 0.1	> 0.01	0.0035	> 100
CCOc1cccc(N=C(OCc2ccc(F)c(Oc3ccc(F)cc3)c2)C(C)C)c1 [Compound 426]	0.002	> 0.1	> 0.01	0.0012	> 100
CC(C)C(=Nc1ccc(C(F)(F)F)cc1Cl)OCc1cccc(Oc2ccc(F)cc2)c1 [Compound 427]	< 0.1	> 0.1	> 0.01	0.05	> 100
CC(C)C(=Nc1ccc(C(F)(F)F)cc1Cl)OCc1ccc(F)c(Oc2ccccc2)c1 [Compound 428]	0.0017	> 0.1	> 0.01	0.003	> 100
CC(C)C(=Nc1ccc(OCC(F)(F)F)c(F)c1)OCc1cccc(Oc2ccc(Cl)cc2)c1 [Compound 429]	0.0017	< 0.1	> 0.01	0.005	> 100

Structure (SMILES)	LC50 CL [1] [%]	LC50 TBW E (eggs) [2] [%]	LC50 MW [3] [%]	LC50 BBA [4] [%]	LC50 HF [5] [µg]
C=C(C)C(=Nc1ccc(C(F)(F)F)cc1)OCc1cccc(Oc2ccccc2)c1 [Compound 430]	0.001	0.032	0.004	0.0006	< 100
CC(C)C(=Nc1ccc(C(F)(F)F)c(Br)c1)OCc1ccc(F)c(Oc2ccccc2)c1 [Compound 434]	0.0017	> 0.1	0.009	0.003	< 100
COc1ccc(N=C(OCc2ccc(F)c(Oc3ccccc3)c2)C(C)C)cc1F [Compound 435]	0.002	0.04	> 0.01	0.001	< 100
CC(C)C(=Nc1cccc(OC(F)(F)F)c1)OCc1ccc(F)c(Oc2ccccc2)c1 [Compound 437]	0.00075	0.025	> 0.01	0.0003	< 100
CCc1ccc(N=C(OCc2cccc(Oc3ccc(F)cc3)c2)C(C)C)cc1Cl [Compound 438]	0.0009	< 0.1	> 0.01	0.0003	> 100
CCOc1ccc(N=C(OCc2ccc(F)c(Oc3ccccc3)c2)C(C)C)cc1F [Compound 439]	0.00045	> 0.1	> 0.01	0.0003	> 100
CCCc1ccc(N=C(OCc2ccc(F)c(Oc3ccc(F)cc3)c2)C(C)C)cc1 [Compound 440]	0.002	< 0.1	> 0.01	0.0003	> 100
CC(C)C(=Nc1ccc(Cl)c(F)c1)OCc1ccc(F)c(Oc2ccc(F)cc2)c1 [Compound 441]	0.000025	0.016	0.006	0.0003	< 100
C=C(C)C(=Nc1ccc(C(F)(F)F)cc1)OCc1cccc(Oc2ccc(F)cc2)c1 [Compound 442]	0.0007	0.035	> 0.01	0.001	< 100
CC(C)C(=Nc1ccc(C(F)(F)F)cc1[N+](=O)[O-])OCc1ccc(F)c(Oc2ccccc2)c1 [Compound 445]	0.00045	> 0.1	> 0.01	0.001	< 100
CCOc1ccc(N=C(OCc2cccc(Oc3ccc(F)cc3)c2)C(C)C)cc1Br [Compound 446]	0.0008	< 0.1	> 0.01	0.001	> 100
CC(C)C(=Nc1cccc(C(F)(F)F)c1)OC(C)c1cccc(Oc2ccccc2)c1 (stereo not drawn) [Compound 459]	0.008	0.1	> 0.01	> 0.05	> 100
CC(C)C(=Nc1ccc(F)c(Cl)c1)OCc1cccc(Oc2c(F)c(F)c(F)c(F)c2F)c1 [Compound 460]	0.02	> 0.1	> 0.01	> 0.05	> 100
CC(C)C(=Nc1ccc(I)c(Cl)c1)OCc1cccc(Oc2ccc(Cl)cc2)n1 [Compound 471]	0.00018	0.018	> 0.01	0.001	< 100
COCc1c(F)c(F)c(COC(=Nc2cccc(C(F)(F)F)c2)C(C)C)c(F)c1F [Compound 503]	0.001	0.08	> 0.01	0.006	21
CC(C)C(=Nc1ccc(C(F)(F)F)cc1)OCc1cccc(Oc2ccccc2)n1 [Compound 504]	0.00025	0.05	0.01	0.0003	< 100
